According to ChEMBL document CHEMBL1131518, “Methionine analogues as inhibitors of methionyl-tRNA synthetase” (1998):
Values after ≈ are worked out from the molar mass of the structure shown.

What was measured:
[1] = target: Methionine--tRNA ligase (Escherichia coli K-12) (UniProt P00959); experiment: Ability to inhibit Escherichia coli methionyl-tRNA synthetase was determined at a concentration of 270 uM
Bacillus subtilis = experiment: Antimicrobial activity against Bacillus subtilis ATCC 6633 was determined; type: functional
Citrobacter freundii = experiment: Antimicrobial activity against Citrobacter freundii 8090 was determined; type: functional
Escherichia coli = experiment: Antimicrobial activity against Escherichia coli JM109 was determined; type: functional
Enterococcus faecalis = experiment: Antimicrobial activity against Enterococcus faecalis 29212 was determined; type: functional
Klebsiella pneumoniae = experiment: Antimicrobial activity against Klebsiella pneumoniae 2011E was determined; type: functional
Proteus vulgaris = experiment: Antimicrobial activity against Proteus vulgaris 6059 was determined; type: functional
Pseudomonas aeruginosa = experiment: Antimicrobial activity against Pseudomonas aeruginosa 1912E was determined; type: functional
Salmonella typhimurium = experiment: Antimicrobial activity against Salmonella Typhimurium 14028 was determined; type: functional, Salmonella enterica subsp. enterica serovar Typhimurium; details: Salmonella enterica
Staphylococcus aureus = experiment: Antimicrobial activity against Staphylococcus aureus 1538p was determined; type: functional
Serratia marcescens = experiment: Antimicrobial activity against Serratia marcescens 1826E was determined; type: functional

Methionine--tRNA ligase (Escherichia coli K-12), sequence (P00959 2-677 limits assumed): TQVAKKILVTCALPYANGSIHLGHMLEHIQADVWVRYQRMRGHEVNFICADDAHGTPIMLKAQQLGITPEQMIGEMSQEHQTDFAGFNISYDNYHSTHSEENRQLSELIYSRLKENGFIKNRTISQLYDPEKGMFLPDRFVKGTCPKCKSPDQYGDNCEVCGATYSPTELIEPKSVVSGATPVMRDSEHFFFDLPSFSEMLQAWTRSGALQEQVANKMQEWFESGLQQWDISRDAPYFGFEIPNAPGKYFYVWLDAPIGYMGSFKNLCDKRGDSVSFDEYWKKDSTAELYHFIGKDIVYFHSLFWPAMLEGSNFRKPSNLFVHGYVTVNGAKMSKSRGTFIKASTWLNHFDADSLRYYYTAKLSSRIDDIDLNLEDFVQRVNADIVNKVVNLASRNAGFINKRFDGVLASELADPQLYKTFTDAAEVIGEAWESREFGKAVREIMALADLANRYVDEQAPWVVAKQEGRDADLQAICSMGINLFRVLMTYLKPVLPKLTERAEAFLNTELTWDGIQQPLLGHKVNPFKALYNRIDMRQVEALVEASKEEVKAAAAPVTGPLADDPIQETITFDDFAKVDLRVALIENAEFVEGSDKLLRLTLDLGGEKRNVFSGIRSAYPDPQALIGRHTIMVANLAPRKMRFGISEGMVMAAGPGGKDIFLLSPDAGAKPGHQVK

`CSCC[C@H](N)C(=O)NOC(C)(C)C` was tested, and the inhibition [1] was 56.2%.

`CCOC(=O)c1c[nH]nc1CCSC` was tested, and the inhibition [1] was 0%.

`CSCCCO` was tested, and the inhibition [1] was 0%.

With `CSCC[C@H](N)C(=O)NO.O=C(O)C(F)(F)F` the MIC (Bacillus subtilis) was greater than 128 µg/mL, the MIC (Citrobacter freundii) was 8 µg/mL and the MIC (Escherichia coli) was 1 µg/mL. The MIC (Enterococcus faecalis) was greater than 128 µg/mL, the MIC (Klebsiella pneumoniae) was greater than 128 µg/mL and the MIC (Proteus vulgaris) was 2 µg/mL. It also gave an MIC (Pseudomonas aeruginosa) greater than 128 µg/mL, an MIC (Salmonella typhimurium) greater than 128 µg/mL and an MIC (Staphylococcus aureus) greater than 128 µg/mL. The MIC (Serratia marcescens) was greater than 128 µg/mL and the inhibition [1] was 81.5%.

Work on `CSCC[C@H](NC(=O)OC(C)(C)C)C(=O)O` yielded an inhibition [1] of 11.3%.

`CSCCc1n[nH]cc1C(=O)O` was tested, and the inhibition [1] was 8.3%.

In the case of `CSCC[C@H](N)C(N)=O`, the inhibition [1] is reported as 17.8%.

Compound `CSCCCCO` has an inhibition [1] of 0%.

For `C[S+]([O-])CC[C@H](N)C(=O)NO` (stereo partly drawn), the inhibition [1] was 8.5%.

`CSCCN1C(=O)c2ccccc2S1(=O)=O` gave an inhibition [1] of 16.3%.

Compound `CSCCO` has an inhibition [1] of 3.2%.

Work on `CSCC[C@H](N)C(=O)Nc1ccc([N+](=O)[O-])cc1` yielded an inhibition [1] of 33.5%.

Compound `CSCC[C@H](NC(=O)OC(C)(C)C)C(=O)NO` has an inhibition [1] of 11.4%.

For `CSCCc1nn[nH]n1`, the inhibition [1] was 16.2%.

`CSCC[C@H](NC(=O)OC(C)(C)C)C(=O)NOC(=O)OC(C)(C)C` showed an inhibition [1] of 0%.

`COC(=O)[C@@H](N)CCSC` gave an inhibition [1] of 20.4%.

Compound `CS(=O)(=O)CC[C@H](N)C(=O)NO` has an inhibition [1] of 0%.

With `COC(=O)CCSC` the inhibition [1] was 3.8%.

With `CSCCC=O` the inhibition [1] was 4.7%.

Compound `CSCC[C@H](N)C(=O)NCO` has an inhibition [1] of 23.1%.

For `CSCCC(N)C(=O)Nc1ccc2ccccc2c1` (stereo not drawn), the inhibition [1] was 22.3%.

`CSCCC(=O)O` gave an inhibition [1] of 5.9%.

For `CSCCC#N`, the inhibition [1] was 7.8%.

`CSCC[C@H](N)C(=O)Nc1cccc([N+](=O)[O-])c1` gave an inhibition [1] of 0%.

With `CSCCC(=O)Cl` the inhibition [1] was 14%.

`CSCCC(N)C(=O)NO` (stereo not drawn) was tested, and the MIC (Bacillus subtilis) was greater than 128 µg/mL, the MIC (Citrobacter freundii) was 8 µg/mL (≈ 48.7 µM) and the MIC (Escherichia coli) was 2 µg/mL (≈ 12.2 µM). The MIC (Enterococcus faecalis) was greater than 128 µg/mL, the MIC (Klebsiella pneumoniae) was greater than 128 µg/mL and the MIC (Proteus vulgaris) was 4 µg/mL (≈ 24.4 µM). The MIC (Pseudomonas aeruginosa) was greater than 128 µg/mL, the MIC (Salmonella typhimurium) was greater than 128 µg/mL and the MIC (Staphylococcus aureus) was greater than 128 µg/mL. For the same compound, the MIC (Serratia marcescens) was greater than 128 µg/mL.

`CSCCC(N)C(=O)NO.O=C(O)C(F)(F)F` (stereo not drawn) was tested, and the MIC (Bacillus subtilis) was greater than 128 µg/mL, the MIC (Citrobacter freundii) was greater than 128 µg/mL and the MIC (Escherichia coli) was greater than 128 µg/mL. For the same compound, the MIC (Enterococcus faecalis) was greater than 128 µg/mL, the MIC (Klebsiella pneumoniae) was greater than 128 µg/mL and the MIC (Proteus vulgaris) was greater than 128 µg/mL. The MIC (Pseudomonas aeruginosa) was greater than 128 µg/mL, the MIC (Salmonella typhimurium) was greater than 128 µg/mL and the MIC (Staphylococcus aureus) was greater than 128 µg/mL. It also gave an MIC (Serratia marcescens) greater than 128 µg/mL.

For `CSCC[C@H](N)C(=O)C(C)C`, the inhibition [1] was 0%.

Work on `CSCCc1cc(O)[nH]n1` yielded an inhibition [1] of 1.8%.

In the case of `COC(=O)CC(=O)CCSC`, the inhibition [1] is reported as 0.4%.
